From publication PMC10707221, “A Novel Lipase from Streptomyces exfoliatus DSMZ 41693 for Biotechnological Applications” (International Journal of Molecular Sciences, 2023) come the findings set out here.

This assay relates to T1, SeLipC.
T1 construct: gene lipC; Full gene with native signal peptide (33 aa) expressed in Rhodococcus sp; T104 (pENV19), secreted; purified on phenyl sepharose; The printed nt borders (870 nt) give about 289 codons, not 33 + 259
Kind of assay: colorimetric p-nitrophenol release at […] nm, nonlinear hyperbolic fit. The assay is classed as biochemical, Streptomyces exfoliatus. The settings on record: 50 mM Tris/HCl pH 8.0, 37 °C; pNPP 10-800 µM; standard assay with isopropanol, gum arabic and sodium deoxycholate.

`CCCCCCCCCCCCCCCC(=O)Oc1ccc([N+](=O)[O-])cc1` [pNPP, p-nitrophenyl palmitate]: the Km was 49.6 ± 11.2 µM.

Usually Km stands for the substrate concentration at which the rate is half of its maximum.
